Each structure is given as a SMILES string.

The subject of the series is GST-RXR197-462 interaction with in vitro translated TBP. Nature of the series: GST pull-down RXR-TBP interaction assay in vitro. In kind it is binding, human. The settings on record: 1.0 μM 9-cis retinoic acid in all buffers; quantitated by phosphorimaging. From the text: GST-RXR197-462 was constructed by PCR amplification of the appropriate sequences from human RXRα. The amplification products were cloned into EcoRI-BamHI digested pGEX2TK. All PCR-derived constructs were verified by sequencing. The plasmid pGEX-TBP was the kind gift of Dr. I. Verma (Salk Institute; see Kerr et al., in Nature 365:412-419 (1993)). Mammalian expression constructs expressing the ligand biding domains of human RXRα, human RARα and human TRβ have been described elsewhere (Forman et al., Cell 81:541-550 (1995)).
GST-fusion proteins were induced, solubilized and bound to glutathione beads following the manufacturer's procedures (LKB-Pharmacia). After binding to glutathione beads, 15 μl of the suspension was incubated with 1 to 2 μl of the appropriate ^35 S-labeled in vitro translated protein for 1 hour in 500 μl of NETN (20 mM Tris-HC1, pH 7.5, 100 mM KC1, 0.7 mM EDTA, 0.5% NP40, 1 mM PMSF). Following incubation, the beads were washed three times with NETN. […]
Thus GST pull-down experiments were carried out as follows. TBP was in vitro transcribed and translated as described above, and incubated with equal amounts of immobilized GST-RXR197-462 or GST-RXR-E453K/E456K) as determined by coomassie stained gels. […] Little or no interaction between TBP and GST alone is detected under these conditions.

With `CC1=C(/C=C/C(C)=C\C=C\C(C)=C\C(=O)O)C(C)(C)CCC1` [9-cis retinoic acid], the “stimulation of the RXR-TBP interaction in vitro by addition of ligand” value is listed as 3-5 fold.

Source of the values: patent US5906920A, “Methods for the detection of ligands for retinoid X receptors” (The Salk Institute for Biological Studies, priority 1995, dated 1999).
